# Results from patent US20230372244A1, “Methods of Preparing Cell-Derived Vesicles” (NATIONAL UNIVERSITY OF SINGAPORE, priority 2020, published 2023).
# Counter-ions that a name gives are not always drawn.
# Assays:
# [1] = system: patient-derived tumor xenografts; experiment: Patient-derived tumor xenografts in NSG mice, DOX and/or PEMF; format: in vivo; details: 20 mg/kg DOX intravenously and/or PEMF 1 h weekly for 5 weeks
# Method: (A) Schematic of PEMF and DOX exposures regimes used on mice hosting patient-derived tumor xenografts. Implanted tumors were allowed to grow for 3 weeks before the initiation of DOX and/or PEMF treatments. Tumor volumes were measured each week while apoptotic cell determination was performed at the end of the study. Each data point represents the mean from 5 experimental runs derived from the tumors obtained from 5 patients, each of which was equally divided amongst the 5 treatment groups. (B) Changes in tumor volume (mm^3) for 5 weeks. (C) Representative scatter dot-plots showing cell population of dissociated tumors sorted based on annexin and propidium iodide staining. (D) Bar chart represents pooled data of apoptotic cell percentages analyzed using flow cytometry. N=5 mice, with *, p<0.05, **, p<0.01, and #p<0.0001. The error bars are expressed as the standard error of the mean.
# The NSG mice were purchased from Jackson's laboratory and used at 8-10 weeks of age. Briefly, each female NSG mouse was implanted with a subcutaneous 60-day (0.36 mg) slow-release estradiol pellet (Innovative Research of America). Each patient tumor was equally divided into 5 chunks and implanted into the dorsal flank of 5 animals corresponding to the 5 different treatment groups. […] At the end of the study, tumor volume was measured and isolated for apoptotic cell determination. […]
# MCF-7 cells [2] = experiment: Cyquant DNA content of MCF-7 cells after DOX and PEMF; format: cell-based; details: DOX 100 nM; 3 mT PEMF 1 h daily for 3 days
# Method: (§1) FIG. 13. […] (A) Schematic of PEMF and DOX treatment regime for DNA quantification. Cells were exposed to 3 mT for 1 h daily for 3 successive days. DOX (100 nM) was administered on the final day 1 h before the last PEMF exposure. Cellular DNA content was measured 24 h after the last PEMF exposure. (B) Bar chart of pooled data for Cyquant DNA content in fold change 24 h post-DOX and PEMF treatments. (C) Colony formation paradigm for MCF-7 cells treated with DOX and PEMFs. (D) MCF-7 colony formation in the presence of 10 and 20 nM DOX, with and without PEMF exposure as indicated. Cells were seeded at a low density of 100 cells per well. (E) Colony survival in 10 nM DOX under low-density conditions. […] (F) MCF-7 colony formation in the presence of 10 and 20 nM DOX, with and without PEMF exposure under high-density seeding of 1000 cells per well. The images on the right are the zoom-in images of cells under the same treatment paradigm. […] (H) Absolute DCH2FDA-ROS fluorescence from MCF-7 cells. […]
# (§2) For cell enumeration using trypan blue exclusion assay, MCF-7, MDA-MB-231, or MCF10A cells were seeded at 6000 cells/cm^2 per well of a 6-well plate. […] Cyquant stained DNA was measured using at 480/520 nm using Cytation 5 microplate reader (BIOTEK).
# MCF-7/TRPC1 cells = experiment: DNA content and colony formation of TRPC1 overexpressing MCF-7 cells with DOX and PEMF; format: cell-based; details: TRPC1 overexpression versus vector cells
# Method: FIG. 17. […] (A) PEMF and DOX treatment regime for MCF-7/TRPC1 cell DNA quantification. (B) DNA fold change relative to 0 mT vector cells. Statistical analysis was done using the two-sample t-test. (C) Colony formation after 10 days in the presence of 0 nM, 10 nM or 20 nM DOX, without PEMF exposure. Images of colony formation and the quantification of colony size frequency distribution normalized to the total number of colonies in the presence of 10 nM DOX for (D) vector and (E) MCF-7/TRPC1 cells or 20 nM DOX for (F) vector and (G) MCF-7/TRPC1 cells, concomitant with daily PEMF exposure. *, p<0.05, **, p<0.01 and ***, p<0.001 indicate the statistical difference between the respective 0 mT and 3 mT condition within the same bin. (H) PEMF-modulated proliferation of TRPC1-silenced MCF-7 cells 48 h post dsiRNA transfection. […]
# as §2
# In vitro clonogenic assay was performed using crystal violet staining (24). […] The mean survival factor (colony count) was determined as the number of surviving cells over the number of cells plated and normalized to the survival factor of the control group expressed as fold change. […]
# MCF-7 xenograft = MCF-7 xenograft in mice, DOX and/or PEMF; format: in vivo; details: weekly PEMF and DOX exposures
# Method: (A) Schematic of weekly PEMF and DOX exposures on MCF-7 xenograft in mice. Implanted cells were allowed to grow for 3 weeks before the initiation of DOX and/or PEMF treatment. Apoptotic cell determination was performed at the end of the study. […] N=6 mice, with *, p<0.05, **, p 1137<0.01, and #, p<0.0001. The error bars are expressed as the standard error of the mean.
# The NSG mice were purchased from Jackson's laboratory and used at 8-10 weeks of age. Briefly, each female NSG mouse was implanted with a subcutaneous 60-day (0.36 mg) slow-release estradiol pellet (Innovative Research of America). […] The tumors were allowed to grow for 3 weeks. For MCF-7, 1×10^6 cells were counted and mixed in a 40-60% ratio with Matrigel Growth Factor (Bio Laboratories, Cat No. 354230). The cells are injected subcutaneously into the dorsal flank of the animals corresponding to the different treatment groups. The animals were given 20 mg/kg DOX intravenously and/or PEMFs stimulation for 1 h weekly for 5 weeks. At the end of the study, tumor volume was measured and isolated for apoptotic cell determination.
# For apoptotic cell determination, the tumors were dissociated to single cells using the MACS Tumor Dissociation Kit in combination with the gentleMACS Dissociator (Miltenyi Biotec) as according to the manufacturer's protocol. After dissociation, the cells were filtered through a 30 μm MACS SmartStrainer. […]
# MCF-7 cells [3] = experiment: Clonogenic assay of MCF-7 cells with DOX and PEMF; format: cell-based; details: 20 nM DOX, low density of 100 cells per well
# Method: as §1, with “well.” for “well. The images on the right are the zoom-in images of cells under the same treatment paradigm.”
# In vitro clonogenic assay was performed using crystal violet staining (24). […] The mean survival factor (colony count) was determined as the number of surviving cells over the number of cells plated and normalized to the survival factor of the control group expressed as fold change. The colony size relative frequency was determined by binning colonies into several bins, according to their relative size from the smallest to the largest colonies after normalizing to the total number of cells.
# TRPA1 = target: T1, TRPA1 (Mus musculus, UniProt Q8BLA8); experiment: TRP channel functional assessment of immobilized CDVs (menthol, Fluo-4 calcium signal); format: biochemical, Murine; details: Fluo-4 loaded myoblast-derived CDVs on microfluidic chip; versus CDVs not administered menthol
# T1 construct: containing Fluo-4 loaded myoblast-derived CDVs from the same culture; endogenous in cells
# T1 sequence (Q8BLA8 whole entry): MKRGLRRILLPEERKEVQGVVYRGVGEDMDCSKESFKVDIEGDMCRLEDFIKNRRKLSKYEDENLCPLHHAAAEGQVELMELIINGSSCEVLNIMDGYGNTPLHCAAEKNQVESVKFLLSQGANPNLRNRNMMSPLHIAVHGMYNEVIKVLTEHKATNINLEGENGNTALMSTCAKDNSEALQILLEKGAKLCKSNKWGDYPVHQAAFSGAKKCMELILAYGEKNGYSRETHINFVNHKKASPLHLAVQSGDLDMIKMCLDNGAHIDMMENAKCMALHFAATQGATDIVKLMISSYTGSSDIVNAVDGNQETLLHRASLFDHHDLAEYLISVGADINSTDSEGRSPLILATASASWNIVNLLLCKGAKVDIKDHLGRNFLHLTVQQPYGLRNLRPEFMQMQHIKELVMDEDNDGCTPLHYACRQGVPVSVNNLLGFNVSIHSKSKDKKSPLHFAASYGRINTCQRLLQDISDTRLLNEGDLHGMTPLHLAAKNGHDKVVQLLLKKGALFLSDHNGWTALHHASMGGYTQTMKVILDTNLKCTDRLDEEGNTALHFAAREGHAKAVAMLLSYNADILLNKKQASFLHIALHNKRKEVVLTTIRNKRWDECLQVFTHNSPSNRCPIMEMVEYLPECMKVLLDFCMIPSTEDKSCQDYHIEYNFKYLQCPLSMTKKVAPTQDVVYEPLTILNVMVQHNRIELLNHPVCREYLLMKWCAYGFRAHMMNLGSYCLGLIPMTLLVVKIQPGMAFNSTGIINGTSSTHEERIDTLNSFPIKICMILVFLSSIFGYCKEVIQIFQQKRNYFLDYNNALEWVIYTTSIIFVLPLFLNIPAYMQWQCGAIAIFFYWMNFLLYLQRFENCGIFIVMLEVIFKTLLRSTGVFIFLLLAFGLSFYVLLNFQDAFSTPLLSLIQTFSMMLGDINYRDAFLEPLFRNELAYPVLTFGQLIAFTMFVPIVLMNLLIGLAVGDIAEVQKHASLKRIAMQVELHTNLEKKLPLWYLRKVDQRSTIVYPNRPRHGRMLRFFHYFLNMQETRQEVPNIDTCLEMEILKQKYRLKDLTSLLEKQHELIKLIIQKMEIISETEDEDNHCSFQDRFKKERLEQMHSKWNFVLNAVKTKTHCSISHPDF
# Description: FIG. 1. Schematic depicting the tests applied to CDVs to ascertain 1) innate channel functionality and 2) recuperative potential for cellular respiratory and proliferative capacities. 1) Cell-free assays were comprised of examining specific TRP channel activation by menthol (TRPA1) or magnetic fields (TRPC1). 2) Cell-based assays entailed administering wild type CDVs to TRPC1-knockdown myoblasts followed by testing for recuperation of cellular proliferative and mitochondrial respiratory capacities.
# FIG. 4. A) Schematics of the CDV immobilization 1), loading 2), and TRP channel functional assessment 3). […] Red fluorescence is Texas Red as part of the biochemical linker, the dotted line indicates the edge of the print. […] Data were simultaneously recorded from 3 parallel channels of the same microfluidic chip containing Fluo-4 loaded myoblast-derived CDVs from the same culture, 2 channels with menthol administration and one without (negative control). […] Representative calcium responses (Rate of Rise (ROR) normalized to starting value) from intact C2C12 myoblasts D) or CDVs E) derived from wild type C2C12 myoblasts (left) or C2C12 CRISPR/Cas9 knockdown myoblasts, 60 (middle), and 61 (right), in response to 10 min magnetic field exposure (1.5 mT) while in suspension immediately before reading. […]
SMILES,tumor growth [1],MCF-7 cell vulnerability to doxorubicin (DNA content) (MCF-7 cells [2]),sensitivity of MCF-7 cells to doxorubicin (MCF-7/TRPC1 cells),MCF-7 tumor growth (MCF-7 xenograft),colony number (MCF-7 cells [3]),intra-CDV calcium concentration (TRPA1)
"COc1cccc2c1C(=O)c1c(O)c3c(c(O)c1C2=O)C[C@@](O)(C(=O)CO)C[C@@H]3O[C@H]1C[C@H](N)[C@H](O)[C@H](C)O1 [DOX, Doxorubicin hydrochloride]",synergize with DOX to inhibit tumor growth in vivo,enhances MCF-7 cell vulnerability to doxorubicin,TRPC1 overexpression sensitizes MCF-7 cells to doxorubicin,synergize with doxorubicin to inhibit MCF-7 tumor growth in vivo,too few to quantify accurately,
"CC1CCC(C(C)C)C(O)C1 (stereo not drawn) [Menthol, menthol]",,,,,,increases in intra-CDV calcium concentration
